From patent publication US6995143B2, “Macrolides with antibacterial activity” (Basilea Pharmaceutica AG, priority 2002, dated 2006)
Converted amounts (≈) assume the structure as drawn.

How the values were obtained:
Type in all cases: cell-based
[1] = system: Streptococcus pneumoniae 12288; experiment: MIC, standard microdilution technique; conditions: for MIC: read-out: minimum inhibitory concentration (MIC), Strain H
Summary of the method: (§1)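 Susceptibility testing used the NCCLS fifth-edition approved standard for aerobic organisms (M7-A5).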

[2] = system: Staphylococcus aureus 745; experiment: MIC, standard microdilution technique; conditions: for MIC: read-out: minimum inhibitory concentration (MIC), Strain C
Summary of the method: as §1

[3] = system: Streptococcus pneumoniae SL199T; experiment: MIC, standard microdilution technique; conditions: for MIC: read-out: minimum inhibitory concentration (MIC), Strain G
Summary of the method: as §1

[4] = system: Staphylococcus aureus 1086; experiment: MIC, standard microdilution technique; conditions: for MIC: read-out: minimum inhibitory concentration (MIC), Strain B
Summary of the method: as §1

[5] = system: Streptococcus pneumoniae l/l; experiment: MIC, standard microdilution technique; conditions: for MIC: read-out: minimum inhibitory concentration (MIC), Strain E
Summary of the method: as §1

[6] = system: Escherichia coli ATCC 25922; experiment: MIC, standard microdilution technique; conditions: for MIC: ATCC25922, read-out: minimum inhibitory concentration (MIC), Strain D
Summary of the method: as §1

[7] = system: Staphylococcus aureus ATCC 29213; experiment: MIC, standard microdilution technique; conditions: for MIC: ATCC29213, read-out: minimum inhibitory concentration (MIC), Strain A
Summary of the method: as §1

[8] = system: Streptococcus pneumoniae ¼; experiment: MIC, standard microdilution technique; conditions: for MIC: read-out: minimum inhibitory concentration (MIC), Strain F
Summary of the method: as §1

[9] = system: Haemophilus influenzae QK12/87; experiment: MIC, standard agar dilution method using HTM medium; conditions: for MIC: read-out: minimum inhibitory concentration (MIC), Strain I
Summary of the method: (§2)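 The reported MIC comes from dilution testing done to NCCLS guidance M7-A5. Organism: Haemophilus influenzae.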

[10] = system: Haemophilus influenzae QK50; experiment: as above; conditions: for MIC: read-out: minimum inhibitory concentration (MIC), Strain L
Summary of the method: as §2

[11] = system: Haemophilus influenzae 12214; experiment: as above; conditions: for MIC: read-out: minimum inhibitory concentration (MIC), Strain K
Summary of the method: as §2

[12] = system: Haemophilus influenzae B1501; experiment: as above; conditions: for MIC: read-out: minimum inhibitory concentration (MIC), Strain M
Summary of the method: as §2

Row | Compound | minimum inhibitory concentration (MIC), Strain H [1] | minimum inhibitory concentration (MIC), Strain C [2] | minimum inhibitory concentration (MIC), Strain G [3] | minimum inhibitory concentration (MIC), Strain B [4] | minimum inhibitory concentration (MIC), Strain E [5] | minimum inhibitory concentration (MIC), Strain D [6] | minimum inhibitory concentration (MIC), Strain A [7] | minimum inhibitory concentration (MIC), Strain F [8] | minimum inhibitory concentration (MIC), Strain I [9] | minimum inhibitory concentration (MIC), Strain L [10] | minimum inhibitory concentration (MIC), Strain K [11] | minimum inhibitory concentration (MIC), Strain M [12] | further results
1 | CC[C@H]1OC(=O)[C@H](C)C(=O)[C@H](C)[C@@H](O[C@@H]2O[C@H](C)C[C@H](N(C)C)[C@H]2O)[C@](C)(OC)C[C@@H](C)C(=O)[C@H](C)[C@H]2[C@@H](SCCC(=O)Nc3ccc4ncccc4c3)C(=O)O[C@@]21C [Example 41] | >32 µg/mL | >32 µg/mL | 8 µg/mL (≈ 9.5 µM) | <=0.06 μg/ml | <=0.06 μg/ml | >32 µg/mL | <=0.06 μg/ml | 16 µg/mL (≈ 19 µM) | 8 µg/mL (≈ 9.5 µM) | 16 µg/mL (≈ 19 µM) | 8 µg/mL (≈ 9.5 µM) | 8 µg/mL (≈ 9.5 µM) | –
2 | CC[C@H]1OC(=O)[C@H](C)C(=O)[C@H](C)[C@@H](O[C@@H]2O[C@H](C)C[C@H](N(C)C)[C@H]2O)[C@](C)(OC)C[C@@H](C)C(=O)[C@H](C)[C@H]2[C@@H](SCC(=O)Nc3ccc(C)c(C)c3)C(=O)O[C@@]21C [Example 55] | 2 µg/mL (≈ 2.48 µM) | >32 µg/mL | 0.25 µg/mL (≈ 0.311 µM) | 0.125 µg/mL (≈ 0.155 µM) | <=0.06 μg/ml | >32 µg/mL | 0.25 µg/mL (≈ 0.311 µM) | <=0.06 μg/ml | 8 µg/mL (≈ 9.94 µM) | 16 µg/mL (≈ 19.9 µM) | 8 µg/mL (≈ 9.94 µM) | 8 µg/mL (≈ 9.94 µM) | –
3 | CC[C@H]1OC(=O)[C@H](C)C(=O)[C@H](C)[C@@H](O[C@@H]2O[C@H](C)C[C@H](N(C)C)[C@H]2O)[C@](C)(OC)C[C@@H](C)C(=O)[C@H](C)[C@H]2[C@@H](SCCN(C)CCn3cnc4c(N)ncnc43)C(=O)O[C@@]21C [Example 9] | 32 µg/mL (≈ 37.1 µM) | >32 µg/mL | 8 µg/mL (≈ 9.28 µM) | 1 µg/mL (≈ 1.16 µM) | <=0.06 μg/ml | >32 µg/mL | 1 µg/mL (≈ 1.16 µM) | 0.5 µg/mL (≈ 0.58 µM) | 8 µg/mL (≈ 9.28 µM) | 8 µg/mL (≈ 9.28 µM) | 16 µg/mL (≈ 18.6 µM) | 4 µg/mL (≈ 4.64 µM) | –
4 | CC[C@H]1OC(=O)[C@H](C)C(=O)[C@H](C)[C@@H](O[C@@H]2O[C@H](C)C[C@H](N(C)C)[C@H]2O)[C@](C)(OC)C[C@@H](C)C(=O)[C@H](C)[C@H]2[C@@H](SCC(=O)Nc3ccccc3-c3ccccc3OC)C(=O)O[C@@]21C (single isomer, unassigned) [Example 53] | >32 µg/mL | >32 µg/mL | 16 µg/mL (≈ 18.1 µM) | 0.25 µg/mL (≈ 0.283 µM) | <=0.06 μg/ml | >32 µg/mL | 0.5 µg/mL (≈ 0.566 µM) | 1 µg/mL (≈ 1.13 µM) | 8 µg/mL (≈ 9.06 µM) | 8 µg/mL (≈ 9.06 µM) | 16 µg/mL (≈ 18.1 µM) | 16 µg/mL (≈ 18.1 µM) | –
5 | CC[C@H]1OC(=O)[C@@](C)(F)C(=O)[C@H](C)[C@@H](O[C@@H]2O[C@H](C)C[C@H](N(C)C)[C@H]2O)[C@](C)(OC)C[C@@H](C)C(=O)[C@H](C)[C@H]2[C@@H](SCCn3cnc(-c4cccnc4)n3)C(=O)O[C@@]21C (single isomer, unassigned) [Example 12, (3R or S, 3aR, 4R or S, 6R, 8R, 9R, 10R, 12S, 15R, 15aS)-15-Ethyl-12-fluorooctahydro-8-methoxy-4,6,8,10,12,15a-hexamethyl-3-[[2-[3-(3-pyridinyl)-1H-1,2,4-triazole-1-yl]ethyl]thio]-9-[[3,4,6-trideoxy-3-(dimethylamino)-β-D-xylo-hexopyranosyl]oxy]-2H-furo [2,3-c] oxacyclotetradecin-2,5,11,13 (3H,6H,12H)-tetrone] | – | – | – | – | – | – | – | – | – | – | – | – | MIC [1]: 4 µg/mL (≈ 4.8 µM); MIC [2]: > 32 µg/mL; MIC [3]: 0.25 µg/mL (≈ 0.3 µM); MIC [4]: ≤ 0.06 µg/mL; MIC [5]: ≤ 0.06 µg/mL; MIC [6]: > 32 µg/mL; MIC [7]: ≤ 0.06 µg/mL; MIC [8]: ≤ 0.06 µg/mL; MIC [9]: 8 µg/mL (≈ 9.59 µM); MIC [10]: 4 µg/mL (≈ 4.8 µM); MIC [11]: 4 µg/mL (≈ 4.8 µM); MIC [12]: 4 µg/mL (≈ 4.8 µM)
6 | CC[C@H]1OC(=O)[C@@](C)(F)C(=O)[C@H](C)[C@@H](O[C@@H]2O[C@H](C)C[C@H](N(C)C)[C@H]2O)[C@](C)(OC)C[C@@H](C)C(=O)[C@H](C)[C@H]2[C@@H](SCCn3cnc4c(N)ncnc43)C(=O)O[C@@]21C (single isomer, unassigned) [Example 56] | 1 µg/mL (≈ 1.22 µM) | >32 µg/mL | <=0.06 μg/ml | <=0.06 μg/ml | <=0.06 μg/ml | 32 µg/mL (≈ 38.9 µM) | <=0.06 μg/ml | <=0.06 μg/ml | 1 µg/mL (≈ 1.22 µM) | 0.5 µg/mL (≈ 0.608 µM) | 1 µg/mL (≈ 1.22 µM) | 0.5 µg/mL (≈ 0.608 µM) | –
7 | CC[C@H]1OC(=O)[C@H](C)[C@@H](O[C@H]2C[C@@](C)(OC)[C@@H](O)[C@H](C)O2)[C@H](C)[C@@H](O[C@@H]2O[C@H](C)C[C@H](N(C)C)[C@H]2O)[C@](C)(OC)C[C@@H](C)C(=O)[C@H](C)[C@@H](O)[C@]1(C)O [Clarithromycin, reference compound] | – | – | – | – | – | – | – | – | – | – | – | – | MIC [1]: > 32 µg/mL; MIC [2]: > 32 µg/mL; MIC [3]: > 32 µg/mL; MIC [4]: > 32 µg/mL; MIC [5]: ≤ 0.06 µg/mL; MIC [6]: > 32 µg/mL; MIC [7]: 0.125 µg/mL (≈ 0.167 µM); MIC [8]: 32 µg/mL (≈ 42.8 µM); MIC [9]: 4 µg/mL (≈ 5.35 µM); MIC [10]: 8 µg/mL (≈ 10.7 µM); MIC [11]: 4 µg/mL (≈ 5.35 µM); MIC [12]: 4 µg/mL (≈ 5.35 µM)
8 | (3R or S, 3aS, 4R or S, 6R, 8R, 9R, 10R, 12R, 15R, 15aS) -15-Ethylhexadecahydro-4,6,8,10,12,15a-hexamethyl-2,5,11,13-tetraoxo-8-[[(2E)-3-(3-quinolyl)-2-propen-1-yl]oxy]-9-[[3,4,6-trideoxy-3-(dimethylamino)-β-D-xylo-hexopyranosyl]oxy]-2H-furo [2,3-c] oxacyclotetradecin-3-carbonitrile [Example 15] | 16 µg/mL | 32 µg/mL | 2 µg/mL | <=0.06 μg/ml | <=0.06 μg/ml | >32 µg/mL | <=0.06 μg/ml | 0.25 µg/mL | 4 µg/mL | 2 µg/mL | 4 µg/mL | 2 µg/mL | –
